From ChEMBL document CHEMBL5727404, “Toll-like receptor 7 (TLR7) agonists having a heterobiaryl moiety, conjugates thereof, and methods and uses therefor” (2019)

Target: T1, Toll-like receptor 7 (Homo sapiens, UniProt Q9NYK1)
T1 sequence (Q9NYK1 whole entry): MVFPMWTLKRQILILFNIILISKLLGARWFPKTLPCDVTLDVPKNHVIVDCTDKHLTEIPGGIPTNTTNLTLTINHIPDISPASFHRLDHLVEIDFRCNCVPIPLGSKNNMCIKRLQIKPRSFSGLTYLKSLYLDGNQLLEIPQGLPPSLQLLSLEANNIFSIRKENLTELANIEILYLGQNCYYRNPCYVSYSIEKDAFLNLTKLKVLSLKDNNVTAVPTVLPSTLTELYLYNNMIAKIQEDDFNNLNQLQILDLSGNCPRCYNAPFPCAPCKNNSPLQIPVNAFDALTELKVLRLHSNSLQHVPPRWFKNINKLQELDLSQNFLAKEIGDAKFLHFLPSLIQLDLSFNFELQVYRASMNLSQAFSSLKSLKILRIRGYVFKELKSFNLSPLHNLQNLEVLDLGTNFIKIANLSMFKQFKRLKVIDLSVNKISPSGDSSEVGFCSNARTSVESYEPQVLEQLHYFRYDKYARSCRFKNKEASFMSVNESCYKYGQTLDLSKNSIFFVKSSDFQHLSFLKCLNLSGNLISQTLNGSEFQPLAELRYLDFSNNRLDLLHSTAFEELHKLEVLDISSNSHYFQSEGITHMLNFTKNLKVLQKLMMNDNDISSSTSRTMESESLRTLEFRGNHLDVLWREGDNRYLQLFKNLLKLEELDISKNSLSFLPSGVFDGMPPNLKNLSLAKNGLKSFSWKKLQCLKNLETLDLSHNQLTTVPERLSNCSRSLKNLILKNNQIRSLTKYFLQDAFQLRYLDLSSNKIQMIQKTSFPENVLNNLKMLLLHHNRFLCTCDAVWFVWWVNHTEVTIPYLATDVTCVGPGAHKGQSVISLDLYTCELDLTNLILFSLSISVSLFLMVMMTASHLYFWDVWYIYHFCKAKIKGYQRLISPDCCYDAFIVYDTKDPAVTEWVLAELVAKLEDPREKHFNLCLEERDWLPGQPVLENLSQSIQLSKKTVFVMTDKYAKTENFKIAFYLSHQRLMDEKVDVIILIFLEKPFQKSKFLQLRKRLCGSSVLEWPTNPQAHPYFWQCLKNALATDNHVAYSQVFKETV
Experiment: HEK-Blue™ TLR7 cells were added to each well of a 384-well tissue-culture plate (15,000 cells per well) and incubated 16-18 h at 37° C., 5% CO2. Compounds (100 nl) were dispensed into wells containing the HEK-Blue™ TLR cells and the treated cells were incubated at 37° C., 5% CO2. After 18 h treatment ten microliters of freshly-prepared Quanti-Blue reagent (Invivogen) was added to each well, incubated for 30 min (37° C., 5% CO2) and SEAP levels measured using an Envision plate reader (OD=620 nm).

EC50	Compound
52 nM	CCCCOc1nc(N)c2nc(O)n(Cc3ccc(-c4csc(CN)c4)nc3)c2n1
59 nM	CCCCOc1nc(N)c2nc(O)n(Cc3ccc(-c4csc(CN)c4)cc3)c2n1
